Measurements as given in PMC3006138, “Fexinidazole – A New Oral Nitroimidazole Drug Candidate Entering Clinical Development for the Treatment of Sleeping Sickness” (PLoS Neglected Tropical Diseases, 2010).
Values joined by “and” are separate entries in the source; they are usually repeats but may differ in a detail not shown here. Equal values may be shown once. Read-outs that look alike come from different tables or passages of the source.

Key:
[1] = Mouse single-dose plasma pharmacokinetics; format: in vivo; conditions: plasma, plasma
Experimental: Blood samples were taken via into heparinised collection tubes and, following centrifugation, plasma was removed and stored frozen until required for assay.
All PK evaluations were carried out using validated high performance liquid chromatography (HPLC) and LC-MS assays, as per standard operating procedures of the laboratories involved.
One mouse PK and brain sampling study was carried out by BioDynamics Ltd., Rushden, UK, according to internal Standard Operating Procedures as a non-GLP regulated study, and animals were maintained as required by the “Code of practice for the housing and care of animals used in scientific procedures” (Home Office, London, 1989).
(§1) BioDynamics Study No: DND/01
(§2) Two groups of female mice were dosed as follows:
(§3) Number Treatment Dose (mg/kg) Route
(§4) All doses are expressed as free base
(§5) Intravenous doses were administered into a lateral tail vein using an appropriately sized syringe and 25G needle and the oral formulation by oral gavage using a polypropylene gavage tube. All doses were given as a single bolus dose at a constant dose volume of 10.0 mL/kg.
(§6) 1.6 Blood sample collection
(§7) At each sampling time point, three animals in each treatment group were deeply anaesthetised using isoflurane and blood samples (approximately 1 mL) taken into individual heparinised tubes by cardiac puncture, following which the animals were killed by cervical fracture. Samples were collected at the following times post-dose:
(§8) Following collection, the blood samples were centrifuged (approximately 10000 g, 2 min at 4 °C) and the plasma retained as one aliquot at approximately -70°C prior to analysis of test material concentrations at BioDynamics by LC-MS/MS.
(§9) 1.7 Collection of terminal brain samples
(§10) Following collection of the terminal blood sample the cranium of each mouse was carefully opened and the brain removed. Excess blood was washed from the brain with distilled water and any excess fluid blotted on absorbent paper. The brain was then snap frozen using liquid nitrogen and placed into a suitably labelled container and stored frozen at approximately -70°C pending analysis.
(§11) All of the plasma samples together with the brains from the 15 minute time point were analysed for concentrations of the test material and its sulfone and sulfoxide metabolites. In addition the brains from the 5 and 30 minute time points for the intravenously treated and the 30 and 60 minute time points for the orally treated animals were analysed for concentrations of Fexinidazole and its sulfone and sulfoxide metabolites using an LC-MS/MS method developed at BioDynamics.
(§12) All samples were treated as temperature sensitive. Blood samples were collected onto wet ice, followed by centrifugation at 4 °C. Plasma and brain samples were snap frozen on dry ice (plasma) or liquid nitrogen (brains) prior to long term storage at less than -70 °C pending analysis.
Summed transitions were used to enhance sensitivity. No instability of the test materials was noted during the course of analysis or on re-injection of the samples into the mass spectrometer under the […]
3. Pharmacokinetic analysis
The plasma concentration vs time curves obtained following intravenous and oral administration of the test compounds to female mice were analysed using WinNonLin (Version 4.1, Scientific Consulting
Inc. USA). The kinetic data were characterised by a non-compartmental analysis (NCA).
The following pharmacokinetic parameters were derived from the profiles: maximum peak plasma concentration (Cmax); the time of maximum observed concentration (Tmax); the terminal half life (T½), and area under the plasma concentration curve (AUC), 3.1.1 Area under the curve (AUC)
The AUC was determined using the linear/log trapezoidal method. A value of zero was used for any plasma concentrations recorded as below the limits of quantification (LLOQ). The AUCinf (observed) was calculated as the area under the curve from the time of dosing extrapolated to time infinity based on the observed concentrations. The AUClast was also determined. […]

[2] = test system: T. b. gambiense (STIB 930); test: In vitro trypanocidal assay (Alamar Blue); format: cell-based, Trypanosoma brucei gambiense; conditions: Trypanosoma brucei, 72 h; read-out: IC50
Outline: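 Parasites at 3×10^4/mL in modified MEM with 15% heat-inactivated horse serum, 72 h at 37°C, 5% CO2, with Alamar Blue for final 3 h; fluorescence ex 536/em 588 nm, IC50 from sigmoidal curves. Cytotoxicity: L-6 rat skeletal myoblasts at 4×10^4/mL, same conditions.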

[3] = Mouse brain concentrations; format: in vivo; conditions: for concentration at 60 min / concentration at 30 min / Kp at 5 min / Kp at 30 min / Kp at 60 min / concentration at 5 min: female, NMRI, mouse; for Kp at 5 min / Kp at 30 min / Kp at 60 min: read-out: Mean plasma:brain ratio (plasma = 1.00)
Experimental: Following sacrifice, the cranium of mice was opened and the brain removed. Excess blood was washed from the brain with distilled water and any excess fluid blotted on absorbent paper. The brain was then snap frozen using liquid nitrogen and placed into a suitably labelled container and stored at approximately −70°C, pending analysis. Brains were homogenized and extracted samples were prepared appropriately for analysis via liquid chromatography-mass spectrometry (LC-MS).
as §1, §2, §3, §4, §5, §6, §7, §8, §9, §10, §11, §12

[4] = test system: L-6 rat myoblast cells; test: Cytotoxicity assay; format: cell-based; conditions: 72 h, read-out: IC50
Experimental: 10 µL of Alamar Blue was added for the final 3 h to determine viability. […] The IC50 values were calculated from the sigmoidal inhibition curves. For cytotoxicity, 4×10^4/mL L-6 rat skeletal myoblast cells were used, and incubations and assessments carried out as above.

[5] = One-electron reduction potential by pulse radiolysis; format: physicochemical
Experimental: One-electron reduction potentials were determined by pulse radiolysis following an established procedure.

[6] = female, NMRI, mouse, iv, 1 mg/kg, fexinidazole 1 mg/kg iv, read-out: AUC0-24
[7] = female, NMRI, mouse, iv, 1 mg/kg, fexinidazole 1 mg/kg iv, read-out: Cmax
[8] = female, NMRI, mouse, po, 25 mg/kg, fexinidazole 25 mg/kg po, read-out: AUC0–24
[9] = female, NMRI, mouse, fexinidazole 1 mg/kg iv
[10] = female, NMRI, mouse, fexinidazole 25 mg/kg po
[11] = brain homogenate, oral, 25 mg/kg, fexinidazole 25 mg/kg po, 60 min, read-out: Brain homogenate concentration
[12] = brain, oral, 25 mg/kg, fexinidazole 25 mg/kg po, 30 min, read-out: Brain concentration
[13] = brain, oral, 25 mg/kg, fexinidazole 25 mg/kg po, 30 min, read-out: Brain homogenate concentration
[14] = brain, oral, 25 mg/kg, fexinidazole 25 mg/kg po, 60 min, read-out: Brain concentration
[15] = fexinidazole 25 mg/kg po, 30 min
[16] = fexinidazole 25 mg/kg po, 60 min

Question: With `Cn1c([N+](=O)[O-])cnc1COc1ccc(S(C)(=O)=O)cc1` [Fexinidazole sulfone] as the molecule, how does the AUC(0-t) [1, 6] read?
Answer: The AUC(0-t) was 7990 ng·h/mL.

Question: What about the Cmax [1, 7] of the same molecule?
Answer: Its Cmax is 511 ng/mL.

Question: What about the AUC(0-t) [1, 8] of the same molecule?
Answer: Its AUC(0-t) is 96300 ng·h/mL.

Question: And the Tmax [1, 9]?
Answer: The Tmax was 2 h.

Question: And the AUC(0-inf) [1, 10]?
Answer: Its AUC(0-inf) is 96300 ng·h/mL.

Question: What about the Tmax [1, 10] of the same molecule?
Answer: The Tmax was 4 h.

Question: And the half-life [1, 10]?
Answer: The half-life was 1.7 h.

Question: What about the bioavailability ([1]; female, NMRI, mouse, fexinidazole 25 mg/kg po vs 1 mg/kg iv) of the same molecule?
Answer: Its bioavailability is 48.8%.

Question: What about the Cmax ([1]; fexinidazole 1 mg/kg iv) of the same molecule?
Answer: Its Cmax is 790.4 ng/mL.

Question: And the Cmax ([1]; fexinidazole 25 mg/kg po, female NMRI mice, listed as Sulfone)?
Answer: Its Cmax is 13651.3 ng/mL.

Question: What about the Cmax ([1]; fexinidazole 25 mg/kg po, female NMRI mice, listed as Sulfone metabolite) of the same molecule?
Answer: Its Cmax is 13651 ng/mL.

Question: What about the Cmax ([1]; fexinidazole 25 mg/kg po, female NMRI mice, listed as sulfone) of the same molecule?
Answer: Its Cmax is 6599.6 ng/mL.

Question: And the “AUC0–24” value ([1]; fexinidazole 25 mg/kg po, listed as Sulfone metabolite)?
Answer: Its value is 96286 ng·h/mL.

Question: And the IC50 [2]?
Answer: The IC50 was 0.16 µg/mL to 0.39 µg/mL and 480 nM to 1.25 µM.

Question: And the concentration at 60 min [3, 11]?
Answer: Its concentration at 60 min is 394 ng/mL.

Question: And the concentration at 30 min [3, 12]?
Answer: Its concentration at 30 min is 468 ng/g.

Question: And the concentration at 30 min [3, 13]?
Answer: Its concentration at 30 min is 156 ng/mL.

Question: What about the concentration at 60 min [3, 14] of the same molecule?
Answer: The concentration at 60 min was 1180 ng/g.

Question: What about the Kp at 5 min ([3]; brain, iv 1 mg/kg, 5 min) of the same molecule?
Answer: The Kp at 5 min was 0.

Question: And the Kp at 30 min ([3]; brain, iv 1 mg/kg, 30 min)?
Answer: Its Kp at 30 min is 0.

Question: And the Kp at 30 min ([3]; brain, po 25 mg/kg, 30 min)?
Answer: Its Kp at 30 min is 0.05.

Question: And the Kp at 60 min ([3]; brain, po 25 mg/kg, 60 min)?
Answer: The Kp at 60 min was 0.06.

Question: What about the Brain homogenate concentration ([3]; fexinidazole 1 mg/kg iv, 5 min) of the same molecule?
Answer: Its Brain homogenate concentration is “BLQ”.

Question: And the Brain homogenate concentration ([3]; fexinidazole 1 mg/kg iv, 30 min)?
Answer: The Brain homogenate concentration was “BLQ”.

Question: And the Brain concentration [3, 15]?
Answer: The Brain concentration was 469 ± 222 ng/g.

Question: And the Brain concentration [3, 16]?
Answer: The Brain concentration was 1183 ± 322 ng/g.

Question: What about the IC50 [4] of the same molecule?
Answer: Its IC50 is > 90 µg/mL and > 289 µM.

Question: What about the “single electron redox potential” value [5] of the same molecule?
Answer: Its value is −488 mV.

Question: With `Cn1c([N+](=O)[O-])cnc1COc1ccc([S+](C)[O-])cc1` (centres unmarked) [Fexinidazole sulfoxide] as the molecule, how does the AUC(0-t) [1, 6] read?
Answer: Its AUC(0-t) is 1590 ng·h/mL.

Question: What about the Cmax [1, 7] of the same molecule?
Answer: The Cmax was 918 ng/mL.

Question: What about the Cmax ([1]; female, NMRI, mouse, po, 25 mg/kg, fexinidazole 25 mg/kg po, female NMRI mice, read-out: Cmax) of the same molecule?
Answer: The Cmax was 14200 ng/mL.

Question: And the AUC(0-t) [1, 8]?
Answer: Its AUC(0-t) is 45000 ng·h/mL.

Question: And the AUC(0-inf) [1, 9]?
Answer: Its AUC(0-inf) is 1560 ng·h/mL.

Question: And the Tmax [1, 9]?
Answer: The Tmax was 0.25 h.

Question: And the half-life [1, 9]?
Answer: The half-life was 0.6 h.

Question: What about the AUC(0-inf) [1, 10] of the same molecule?
Answer: Its AUC(0-inf) is 45000 ng·h/mL.

Question: And the Tmax [1, 10]?
Answer: Its Tmax is 0.5 h.

Question: What about the half-life [1, 10] of the same molecule?
Answer: The half-life was 1 h.

Question: What about the “AUC0–24” value ([1]; fexinidazole 25 mg/kg po, listed as Sulfoxide metabolite) of the same molecule?
Answer: Its value is 45031 ng·h/mL.

Question: And the IC50 [2]?
Answer: The IC50 was 0.18 µg/mL to 0.36 µg/mL and 610 nM to 1.22 µM.

Question: What about the concentration at 5 min ([3]; brain homogenate, intravenous, 1 mg/kg, fexinidazole 1 mg/kg iv, 5 min, read-out: Brain homogenate concentration) of the same molecule?
Answer: Its concentration at 5 min is 39.9 ng/mL.

Question: What about the concentration at 30 min ([3]; brain homogenate, intravenous, 1 mg/kg, fexinidazole 1 mg/kg iv, 30 min, read-out: Brain homogenate concentration) of the same molecule?
Answer: Its concentration at 30 min is 57.6 ng/mL.

Question: And the concentration at 60 min [3, 11]?
Answer: Its concentration at 60 min is 1620 ng/mL.

Question: What about the concentration at 5 min ([3]; brain, intravenous, 1 mg/kg, fexinidazole 1 mg/kg iv, 5 min, read-out: Brain concentration) of the same molecule?
Answer: Its concentration at 5 min is 120 ng/g.

Question: And the concentration at 30 min ([3]; brain, intravenous, 1 mg/kg, fexinidazole 1 mg/kg iv, 30 min, read-out: Brain concentration)?
Answer: Its concentration at 30 min is 173 ng/g.

Question: What about the concentration at 30 min [3, 12] of the same molecule?
Answer: The concentration at 30 min was 3310 ng/g.

Question: What about the concentration at 30 min [3, 13] of the same molecule?
Answer: Its concentration at 30 min is 1100 ng/mL.

Question: And the concentration at 60 min [3, 14]?
Answer: The concentration at 60 min was 4870 ng/g.

Question: What about the Kp at 5 min ([3]; brain, iv 1 mg/kg, 5 min) of the same molecule?
Answer: The Kp at 5 min was 0.045.

Question: And the Kp at 30 min ([3]; brain, iv 1 mg/kg, 30 min)?
Answer: The Kp at 30 min was 0.064.

Question: What about the Kp at 30 min ([3]; brain, po 25 mg/kg, 30 min) of the same molecule?
Answer: Its Kp at 30 min is 0.078.

Question: And the Kp at 60 min ([3]; brain, po 25 mg/kg, 60 min)?
Answer: Its Kp at 60 min is 0.12.

Question: What about the Brain concentration [3, 15] of the same molecule?
Answer: The Brain concentration was 3315 ± 1611 ng/g.

Question: What about the Brain concentration [3, 16] of the same molecule?
Answer: Its Brain concentration is 4873 ± 2335 ng/g.

Question: And the IC50 [4]?
Answer: Its IC50 is > 90 µg/mL and > 305 µM.

Question: What about the “single electron redox potential” value [5] of the same molecule?
Answer: The value was −493 mV.
